Laboratory results taken from patent publication US20010053781A1, “Pharmaceutical composition for enhancing cognition” (National Science Council, priority 2000, published 2001).

Assays:
[1] = tested on: mecamylamine-induced acquisition impairment of passive avoidance response in rats; experiment: Passive avoidance task, mecamylamine-induced acquisition impairment; assay type: in vivo, rat; conditions: ferulic acid at 50-100 mg/ml (printed), i.p. 1 hour before training trial, mecamylamine 10 mg/kg i.p., FIG. 2
Description: (§1) Male Sprague-Dawley rats, weighing 200-250 grams, were housed in groups of six with free access to food and water and kept in a regulated environment (23±1° C.), wherein a 12-hour light-dark cycle (08:00-20:00 hours light) was maintained. Each experimental group included 12-18 rats. Rats were trained in a step-through passive avoidance task (Muromachi Kikai Co. Ltd. Japan). The apparatus consisted of two compartments having a steel-rod grid floor (36 parallel steel rods, 0.3 cm in diameter set 1.5 cm apart). One of the compartments (48×20×30 cm) was equipped with a 20 Watt lamp located centrally at a height of 30 cm, and the other was a dark compartment of the same size connected through a guillotine door (5×5 cm). The dark room was used during the experimental sessions that were conducted between 09:00 and 17:00. During the trial training, the guillotine door connecting the light and dark compartment was kept closed. After each rat was placed in the light compartment with its back to the guillotine door, the door was opened and simultaneously the time (step-through latency; STL) taken by the rat to enter the dark compartment was measured with a stopwatch^(14). Once the rat entered the dark compartment, the door was closed. An inescapable scrambled footshock (1.0 mA for 2 sec) was then delivered through the grid floor. […]

[2] = tested on: cycloheximide (CXM)-induced memory storage impairment of passive avoidance response in rats; experiment: Passive avoidance task, cycloheximide-induced memory consolidation impairment; assay type: in vivo, rat; conditions: ferulic acid at 50-100 mg/ml (printed), administered 60 minutes before the training trial, cycloheximide 1.5 mg/kg s.c., FIGS. 4-5
Description: as §1

[3] = tested on: AF64A-induced impairment of passive avoidance response in rats; experiment: Passive avoidance task, AF64A-induced impairment; assay type: in vivo, rat; conditions: ferulic acid at 50-100 mg/kg, AF64-A 3 nmol/μl/brain into lateral ventricle 10 days before training, FIG. 8
Description: Male Sprague-Dawley rats, weighing 200-250 grams, were housed in groups of six with free access to food and water and kept in a regulated environment (23±1° C.), wherein a 12-hour light-dark cycle (08:00-20:00 hours light) was maintained. Each experimental group included 12-18 rats.
Rats were trained in a step-through passive avoidance task (Muromachi Kikai Co. Ltd. Japan). The apparatus consisted of two compartments having a steel-rod grid floor (36 parallel steel rods, 0.3 cm in diameter set 1.5 cm apart). One of the compartments (48×20×30 cm) was equipped with a 20 Watt lamp located centrally at a height of 30 cm, and the other was a dark compartment of the same size connected through a guillotine door (5×5 cm). […]
During the trial training, the guillotine door connecting the light and dark compartment was kept closed. After each rat was placed in the light compartment with its back to the guillotine door, the door was opened and simultaneously the time (step-through latency; STL) taken by the rat to enter the dark compartment was measured with a stopwatch^(14). […] The rat was once again placed in the light compartment and as in the case of the training trial, the guillotine door was opened and the step-through latency was recorded and used as a measure of retention. […]
The step-through latency of rats in light compartment was recorded according to the method described in Example 1. […]

[4] = tested on: cerebral blood flow rate in rats; experiment: Cerebral blood flow rate by laser Doppler flowmetry; assay type: in vivo, rat; conditions: 50-100 mg/kg ferulic acid, from 10 to 40 minutes after administration, FIG. 10
Description: The cerebral blood flow rate was measured by laser Doppler flowmetry in rats according to the procedure described in Morikawa, E. et al.^(19).

[5] = tested on: deficit of place learning in the Morris water maze task induced by scopolamine in rats; experiment: Morris water maze test, scopolamine-induced deficit of place learning; assay type: in vivo, rat; conditions: 50-100 mg/kg ferulic acid i.p., scopolamine 0.3 mg/kg i.p., FIG. 9
Description: The water maze apparatus (Columbus Instruments Intl. Co., USA) was used in this Example. The swimming time and track of rats in the water maze were monitored by the Videomex V System and recorded by computer software. The water maze apparatus consisted of a water tank of 180 cm in diameter and 35 cm in height. The water stained as milk-white color was poured into the tank (25 cm in depth, 23±1° C.) before the training trial. The tank was conceptually divided into the 4 quadrants of east, west, south and north on the computer. An acrylic plate of 10 cm in diameter was placed at the north quadrant 1 cm below the water level. Rats were trained 4 times per day as one training course for 5 days. In one training course, each rat swam to the acrylic plate from 4 different quadrants, respectively. 10 seconds after swimming to the acrylic plate, the rat was returned to the home cage. After 30 seconds of rest, the next training session was carried out. The swimming time from the beginning to the acrylic plate was recorded, and an upper cut-off time of 60 seconds was set^(18). Ferulic acid (Sigma) was freshly dissolved in carboxy-methyl cellulose, and administered to rats (50, 100 mg/kg, i.p.) 1 hour before the training trial in combination with the following drug: scopolamine HBr (muscarinic receptor blocker; 0.3 mg/kg, i.p.) 30 minutes before the training trial for inducing acquisition impairment.

[6] = tested on: scopolamine plus mecamylamine-induced acquisition impairment of passive avoidance response in rats; experiment: Passive avoidance task, scopolamine plus mecamylamine-induced acquisition impairment; assay type: in vivo, rat; conditions: ferulic acid at 50-100 mg/ml (printed), scopolamine and mecamylamine co-administered under the threshold dosage, FIG. 6
Description: as §1

[7] = tested on: pirenzepine-induced acquisition impairment of passive avoidance response in rats; experiment: Passive avoidance task, pirenzepine-induced acquisition impairment; assay type: in vivo, rat; conditions: ferulic acid at 50-100 mg/ml (printed), i.p., pirenzepine 1 mg/kg i.p., FIG. 3
Description: as §1

[8] = tested on: scopolamine (SCOP)-induced acquisition impairment of passive avoidance response in rats; experiment: Passive avoidance task, scopolamine-induced impairment with peripheral antagonist scopolamine methylbromide; assay type: in vivo, rat; conditions: FIG. 7
Description: as §1

[9] = administered intravenously; reported by Xu et al.; cited from earlier work
[10] = tested on: scopolamine (SCOP)-induced acquisition impairment of passive avoidance response in rats; experiment: Passive avoidance task, scopolamine-induced acquisition impairment; assay type: in vivo, rat; conditions: ferulic acid at 50-100 mg/ml (printed), i.p. 1 hour before training trial, scopolamine 1 mg/kg i.p., FIG. 1
Description: as §1

For `COc1cc(C=CC(=O)O)ccc1O` [ferulic acid, 4-hydroxy-3-methoxycinnamic acid], the “effect on mecamylamine-induced acquisition impairment (step-through latency, passive avoidance)” value [1] was “attenuates”, the “effect on CXM-induced consolidation impairment (step-through latency, passive avoidance)” value [2] was “significantly ameliorates” and the “effect on memory impairment induced by AF64A (passive avoidance)” value [3] was “counteracts”. The “effect on cerebral blood flow rate” value [4] was “enhances”, the “effect on scopolamine-induced acquisition impairment in a water maze” value [5] was “ameliorates” and the “effect on learning impairment induced by scopolamine plus mecamylamine (passive avoidance)” value [6] was “attenuates”. The “effect on pirenzepine-induced acquisition impairment (step-through latency, passive avoidance)” value [7] was “counteracts”, the “blocking of the counteracting effects of ferulic acid on scopolamine-induced learning impairment by peripheral cholinergic antagonist scopolamine methylbromide” value ([8]; ferulic acid 100 mg/kg with scopolamine methylbromide 0.5 mg/kg i.p.) was “does not block” and the “effect on scopolamine-induced acquisition impairment (passive avoidance)” value ([8]; ferulic acid at 100 mg/kg, scopolamine 0.3 mg/kg i.p.) was “ameliorates”. For the same compound, the “half lethal dose (LD50)” value [9] was 866 ± 29 mg/kg and the “effect on scopolamine-induced acquisition impairment (step-through latency, passive avoidance)” value [10] was “attenuates”.
